Measured values published in patent US8389573B2, “Glycyrrhetinic acid derivatives” (Wellington Laboratories Inc., priority 2006, dated 2013).
Entries after “also recorded” stand apart in the source; their conditions may differ.

Legend:
PPARγ [1] = experiment: PPARγ-GAL4/pGAL4 transfection and luciferase assay in HT-29 cells; assay type: cell-based
Experimental: (§1) The Gal4 reporter containing 5× Gal4 response elements (pGal4) was kindly provided by Dr. Marty Mayo (University of North Carolina, Chapel Hill, N.C.). Gal4 DBD-PPARγ construct (gPPARγ) was a gift of Dr. Jennifer L. Oberfield (GlaxoSmithKline Research and Development, Research Triangle Park, N.C.). PPRE3-luc construct contains three tandem PPREs with a minimal TATA sequence in pGL2.
(§2) Colon Cancer cell lines SW480 and HT29 (1×10^5 cells/well) were plated in 12-well plates in DMEM/Ham's F-12 media supplemented with 2.5% charcoal-stripped FBS. After 16 h, various amounts of DNA [i.e., Gal4Luc (0.4 μg), β-Gal (0.04 μg), Gal4PPAR and PPRE3-Luc (0.04 μg)] were transfected using LipofectAMINE™ reagent (Invitrogen) following the manufacturer's protocol. Five hours after transfection, the transfection mix was replaced with complete media containing either vehicle (DMSO) or the indicated ligand for 20 to 22 h. Cells were then lysed with 100 μl of 1× reporter lysis buffer, and 30 μl of cell extract was used for luciferase and […] assays. A LumiCount™ luminometer (PerkinElmer Life and Analytical Sciences) was used to quantitate luciferase and β-Gal activities, and the luciferase activities were normalized to β-Gal activity. Results are expressed as means±S.E. for at least three replicate determinations for each treatment group

HT-29 cells = experiment: Western blot analysis in HT-29 cells; assay type: cell-based, human
Experimental: SW-480 and HT-29 (3×10^5) cells were seeded in six-well plates in DMEM/Ham's F-12 media containing 2.5% charcoal-stripped FBS for 24 h and then treated with either the vehicle (DMSO) or the indicated compounds. Whole-cell lysates were obtained using high-salt buffer [50 mM HEPES, 500 mM NaCl, 1.5 mM MgCl2, 1 mM EGTA, 10% glycerol, and 1% Triton X-100, pH 7.5, and 5 μl/ml Protease Inhibitor Cocktail (Sigma-Aldrich)]. Protein samples were incubated at 100° C. for 2 min, separated on 10% SDS-PAGE at 120 V for 3 to 4 h in 1× running buffer (25 mM Tris-base, 192 mM glycine, and 0.1% SDS, pH 8.3), and transferred to polyvinylidene difluoride membrane (PVDF; Bio-Rad, Hercules, Calif.) at […] for 16 h at 4° C. in 1× transfer buffer (48 mM Tris-HCl, 39 mM glycine, and 0.025% SDS). The PVDF membrane was blocked in 5% TBST-Blotto (10 mM Tris-HCl, 150 mM NaCl, pH 8.0, 0.05% Triton X-100, and 5% nonfat dry milk) with gentle shaking for 30 min and was incubated in fresh 5% TBST-Blotto with 1:1000 (for caveolin-1, p27, p21, cyclin D1, Grp78), 1:500 (for KLF4, NAG-1), 1:250 (for PARP), and 1:5000 (for β-actin) primary antibody overnight with gentle shaking at 4° C. After washing with TBST for 10 min, the PVDF membrane was incubated with secondary antibody (1:5000) in 5% TBST-Blotto for 90 min. The membrane was washed with TBST for 10 min, incubated with 10 ml of chemiluminescence substrate (PerkinElmer) for 1.0 min, and exposed to Kodak X-OMAT AR autoradiography film (Eastman Kodak, Rochester, N.Y.).

[2] = system: Sp protein levels in RKO cells; experiment: Sp protein expression (gel) in RKO cells; assay type: cell-based
[3] = system: Sp1, Sp3 and Sp4 protein expression in Panc28 cells; experiment: Sp protein expression (gels) in Panc28 cells; assay type: cell-based
PSA mRNA = experiment: Real-time PCR of PSA mRNA in LNCaP cells; assay type: cell-based, human; conditions: 12 or 18 hr
Experimental: Real-Time PCR: Total RNA was isolated using the RNeasy Protect Mini kit (QIAGEN, Valencia, Calif.) according to the manufacturer's protocol. RNA was eluted with 30 μl of RNasefree water and stored at −80° C. RNA was reverse transcribed using Superscript II reverse transcriptase (Invitrogen) according to the manufacturer's protocol. cDNA was prepared from the LNCaP cell line using a combination of oligodeoxythymidylic acid and dNTP mix (Applied Biosystems, Foster City, Calif.) and Superscript II (Invitrogen). Each PCR was carried out in triplicate in a 25-μl volume using SYBR Green Master mix (Applied Biosystems) for 15 min at 95° C. for initial denaturing, followed by 40 cycles of 95° C. for 30 s and 60° C. for 1 min in the ABI Prism 7700 sequence detection system (Applied Biosystems). The ABI Dissociation Curves software was used after a brief thermal protocol (95° C. 15 s and 60° C. 20 s, followed by a slow ramp to 95° C.) to control for multiple species in each PCR amplification. The comparative CT method was used for relative quantitation of samples. Values for each gene were normalized to expression levels of TATA-binding protein. Primers were purchased from Integrated DNA Technologies (Coralville, Iowa). The sequences of the primers used for reverse transcription-PCR were as follows: AR forward, 5′-GTA CCC TGG CGG CAT GGT-3′ [SEQ ID NO: 1] and AR reverse, 5′-CCCATTTCGCTTTTGACACA-3′ [SEQ ID NO: 2]; PSA forward, 5′-GCATTGAACCAGAGGAGTTCTTG-3′ [SEQ ID NO: 3] and PSA reverse, 5′-TTG CGC ACA CAC GTC ATT G-3′ [SEQ ID NO: 4]; and TATA-binding protein forward, 5′-TGCACAGGAGCCAAGAGTGAA-3′ [SEQ ID NO: 5] and reverse, 5′-CACATCACAGCTCCCCACCA-3′ [SEQ ID NO: 6].

PPARγ [4] = experiment: PPARγ-GAL4/pGAL4 transfection and luciferase assay in SW480 cells; assay type: cell-based
Experimental: as §1, §2

COC(=O)[C@@]1(C)CC[C@]2(C)CC[C@]3(C)C(=CC(=O)[C@@H]4[C@@]5(C)C=C(C#N)C(=O)C(C)(C)[C@@H]5CC[C@]43C)[C@@H]2C1 [β-CDODA-Me, Methyl 2-cyano-3,11-dioxo-18β-oleana-1,12-dien-30-oate]
PPARγ transactivation (GAL4-PPARγ/GAL4-Luc) (PPARγ [1]): induced transactivation | NAG-1 and KLF4 proteins (HT-29 cells; HT-29, 24 hours): induction of NAG-1 and KLF4 proteins | PARP cleavage (HT-29 cells; HT-29, 24 hours): induction of PARP cleavage | NAG-1 protein levels (HT-29 cells; HT-29, 24 hours, higher (5 μM) concentration): decreased | induction of NAG-1 and PARP cleavage after cotreatment with T007 (HT-29 cells; HT-29, 24 hr): not affected | KLF-4 induction after cotreatment with T007 (HT-29 cells; HT-29, 24 hr, 10 μM T007): blocks this induction response | caveolin-1 (HT-29 cells; HT-29, 3 days): induction of caveolin-1 | induction of caveolin-1 after cotreatment with T007 (HT-29 cells; HT-29, 96 hr, 10 μM T007): inhibited | Sp protein expression [2]: decreases Sp protein expression | VEGF protein expression [2]: decreased VEGF protein expression | decrease of Sp protein expression with T007 or proteasome inhibitors [2]: not reversed | Sp1, Sp3 and Sp4 protein expression [3]: concentration-dependent decrease; also recorded: induces Sp protein degradation | VEGF expression [3]: parallel decrease | caspase-dependent apoptosis (PARP cleavage) [3]: induction of caspase-dependent apoptosis | effects on Sp protein expression with PPARγ antagonist (T007) [3]: not blocked; also recorded: not reversed | effects on Sp protein expression with proteasome inhibitor lactacystin [3]: not blocked; also recorded: only a minimal amount of reversal | PSA mRNA levels (PSA mRNA): downregulation of PSA mRNA levels | PSA mRNA response after cotreatment with T007 (PSA mRNA): not inhibited | downregulation of PSA mRNA levels after cotreatment with cycloheximide (PSA mRNA): significantly inhibited | induced luciferase activity after cotreatment with PPARγ antagonist T007 (PPARγ [4]; 1.0, 2.5, 5.0 β-CDODA-Me or 10, 20, 30 μM β-CDODA, 10 μM T007): inhibited | maximal induction of luciferase activity (PPARγ activation) (PPARγ [4]; 1-5 μM): 18 Fold
